For 14 compounds, inhibition, IC50 and Ki results are on record in ChEMBL document CHEMBL1147034, “Synthesis and evaluation of 2',4',6'-trihydroxychalcones as a new class of tyrosinase inhibitors” (Bioorg Med Chem, 2007).

In assay [1] the target is T1, Tyrosinase (Agaricus bisporus) (UniProt O42713).
T1 sequence (whole entry): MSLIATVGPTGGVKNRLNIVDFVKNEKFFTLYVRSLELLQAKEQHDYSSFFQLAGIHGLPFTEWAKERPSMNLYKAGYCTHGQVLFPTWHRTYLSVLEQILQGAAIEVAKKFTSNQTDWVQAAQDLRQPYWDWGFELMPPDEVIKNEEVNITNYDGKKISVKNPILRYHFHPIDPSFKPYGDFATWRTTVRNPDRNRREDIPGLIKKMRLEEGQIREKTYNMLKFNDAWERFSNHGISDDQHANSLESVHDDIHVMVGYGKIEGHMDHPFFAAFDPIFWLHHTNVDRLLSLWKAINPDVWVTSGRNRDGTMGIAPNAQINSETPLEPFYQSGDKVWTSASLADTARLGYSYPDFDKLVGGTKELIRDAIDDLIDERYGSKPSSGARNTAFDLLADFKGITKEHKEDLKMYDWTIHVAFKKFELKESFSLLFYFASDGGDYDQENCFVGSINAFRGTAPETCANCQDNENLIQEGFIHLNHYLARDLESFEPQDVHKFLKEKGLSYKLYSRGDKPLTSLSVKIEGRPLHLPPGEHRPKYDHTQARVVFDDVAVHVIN
As to the kind of experiment: Inhibition of mushroom tyrosinase at 400 uM.

A further assay concerns the target T2, Tyrosinase (Agaricus bisporus, UniProt O42713).
T2 sequence (O42713 whole entry): T1 sequence (whole entry)

As to `COc1cc(O)c(C(=O)/C=C/c2cccc(O)c2O)c(OC)c1`, the inhibition in assay [1] was less than 20%.

The compound `O=C(/C=C/c1ccc(O)cc1O)c1c(O)cc(O)cc1O` registered an inhibition in assay [1] of 72%. On Tyrosinase, this compound had an IC50 of 1 µM and a Ki of 3.1 µM.

On to `COc1cc(O)c(C(=O)/C=C/c2ccc(O)c(O)c2)c(OC)c1`, for which, in assay [1], the inhibition was less than 20%.

For `O=C(/C=C/c1cc(O)c(O)c(O)c1)c1c(O)cc(O)cc1O`, on Tyrosinase, 200 µM corresponded to half-maximal inhibition (IC50).

At Tyrosinase, `O=C(/C=C/c1cccc(O)c1O)c1c(O)cc(O)cc1O` registered a 50% inhibitory concentration (IC50) of 193 µM.

In the case of `O=C(/C=C/c1ccc(O)cc1O)c1ccc(O)cc1O`, 5 µM corresponded to half-maximal inhibition against Tyrosinase (IC50).

Turning to `O=C(/C=C/c1ccc(O)c(O)c1)c1c(O)cc(O)cc1O`, the inhibition in assay [1] was less than 20%.

In turn, `COc1cc(O)cc(O)c1C(=O)/C=C/c1ccc(O)cc1O` yielded an IC50 at Tyrosinase of 3.1 µM.

As to `O=C(/C=C/c1ccc(O)c(O)c1)c1ccccc1O`, the inhibition in assay [1] is less than 20%.

`O=C(/C=C/c1ccccc1)c1ccc(O)cc1O`: the inhibition in assay [1] was less than 20%.

`O=C(/C=C/c1ccc(O)c(O)c1)c1ccc(O)c(O)c1` yielded an inhibition in assay [1] of less than 20%.

In turn, `COc1ccc(/C=C/C(=O)c2c(O)cc(O)cc2O)cc1OC` came in with an IC50 against Tyrosinase of 150 µM.

On to `COc1cc(O)c(C(=O)/C=C/c2cc(O)c(O)c(O)c2)c(OC)c1`, for which the inhibition in assay [1] was less than 20%.

In turn, `O=C(/C=C/c1ccccc1)c1c(O)cccc1O` returned an inhibition in assay [1] of less than 20%.
